The text below walks through data of paper PMC6218799 (BioMed Research International, 2018).

Data set [1] addresses T1, CYP1A2 (Rattus norvegicus, UniProt P04799).
T1 construct: from tissue; host or cells: whole animal, male Wistar rats (in vivo pharmacokinetics)
T1 sequence (P04799 1-513): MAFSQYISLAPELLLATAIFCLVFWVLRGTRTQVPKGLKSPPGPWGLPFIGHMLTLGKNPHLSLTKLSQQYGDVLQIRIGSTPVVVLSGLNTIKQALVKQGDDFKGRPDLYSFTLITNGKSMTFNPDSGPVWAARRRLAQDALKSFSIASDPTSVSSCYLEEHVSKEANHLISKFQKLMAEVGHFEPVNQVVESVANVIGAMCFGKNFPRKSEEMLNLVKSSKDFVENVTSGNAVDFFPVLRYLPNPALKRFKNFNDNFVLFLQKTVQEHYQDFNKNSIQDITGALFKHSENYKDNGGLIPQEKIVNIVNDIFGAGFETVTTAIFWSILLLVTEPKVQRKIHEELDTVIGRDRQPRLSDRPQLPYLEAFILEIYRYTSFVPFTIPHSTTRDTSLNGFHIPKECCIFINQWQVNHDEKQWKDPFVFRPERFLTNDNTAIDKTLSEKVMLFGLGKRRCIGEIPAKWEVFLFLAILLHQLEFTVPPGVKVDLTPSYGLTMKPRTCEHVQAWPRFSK
As to the kind of experiment: Cocktail method in rats: pharmacokinetics of probe drug theophylline (CYP1A2 activity). The data set is classed as in vivo. The settings on record: male, Wistar, plasma, iv, 10 mg/kg, theophylline 10 mg/kg iv.
Procedure: (§1) UltiMate3000 HPLC equipped with diode array detector was used to analyze the compounds.
(§2) Forty-eight male Wistar rats (220 ± 20 g) were randomly divided into two control groups, two Digeda groups, and two positive groups (n=8). […] The other groups were given the mixture of two probe drugs (omeprazole and midazolam were 10 mg/kg and 5 mg/kg) by intravenous injection.
(§3) The samples were immediately centrifuged at 3500 r/min for 10 min, and 200 μL plasma was obtained from each sample.
(§4) The plasma samples were extracted. In a 5 mL centrifuge tube, 100 μL of the IS working solution (0.1 mg/mL) was added to 200 uL of collected plasma sample followed by the addition of 2 mL of dichloromethane. After the tube was vortex-mixed for 5 min, the sample was centrifuged at 3500 r/min for 10 min. 1.2 mL of the organic phase was transferred into the other glass tube and was dried by nitrogen. The residue was redissolved with 200 μL methanol and then injected into the HPLC system for analysis. The concentration of probe drugs in plasma was measured by HPLC.
(§5) Plasma probe drug concentration versus time data for each rat was analyzed by DAS software (version 3.0, Drug Clinical Research Center of Shanghai University of TCM and Shanghai BioGuider Medicinal Technology, Co. Ltd., China). The pharmacokinetic parameters of the Digeda group and control group probe drugs with the t-test were analyzed using SPSS 17.0 statistical software. p < 0.05 was considered statistically significant.

Data set [2] relates to CYP3A4. As to the kind of experiment: Cocktail method in rats: pharmacokinetics of probe drug midazolam (CYP3A4 activity). The settings on record: male, Wistar, rat, plasma, iv, 5 mg/kg, midazolam 5 mg/kg iv; for AUC(0-t): AUC0~t; for AUC(0-inf): AUC0~∞; for clearance: Cl.
Procedure: as §1, §2, §3, §4, §5
In data set [3] the test system is CYP2C19. The settings on record: in vivo; cited from earlier work.
In data set [4] the test system is CYP1A2. The arrangement: method as in ref 43 = [43]; 43 Du Y. Zhu R.-H. Su F.-L. Wang F. Liang H.-X. Li H.-D. Effect of oleanolic acid on CYP1A2, CYP2E1 and CYP3A4 activity in healthy subjects Chinese Pharmaceutical Journal 2008 43 4 300 303 2-s2.0-5304. As to conditions: healthy volunteers; cited from earlier work.
Data set [5] deals with CYP2E1. Further details: method as in ref 43 = [43]; 43 Du Y. Zhu R.-H. Su F.-L. Wang F. Liang H.-X. Li H.-D. Effect of oleanolic acid on CYP1A2, CYP2E1 and CYP3A4 activity in healthy subjects Chinese Pharmaceutical Journal 2008 43 4 300 303 2-s2.0-5304. The settings on record: healthy volunteers; cited from earlier work.
In data set [6] the test system is CYP3A4. The settings on record: healthy volunteers; cited from earlier work.
Data set [7] deals with CYP1A2. Further details: method as in ref 45 = [45]; 45 Han Y. L. Meng X. L. Li D. In Vitro Inhibition of Six Cytochrome P450 Isoforms in Human Liver Microsomes by Qingkailing Injection and Its Two Active Components(Baicalin and Geniposide) Chinese Phar. As to conditions: Han's research; cited from earlier work.
For data set [8], the system named is CYP2C9. The arrangement: method as in ref 45 = [45]; 45 Han Y. L. Meng X. L. Li D. In Vitro Inhibition of Six Cytochrome P450 Isoforms in Human Liver Microsomes by Qingkailing Injection and Its Two Active Components(Baicalin and Geniposide) Chinese Phar. The settings on record: Han's research; cited from earlier work.
Data set [9] deals with CYP2C19. The arrangement: method as in ref 45 = [45]; 45 Han Y. L. Meng X. L. Li D. In Vitro Inhibition of Six Cytochrome P450 Isoforms in Human Liver Microsomes by Qingkailing Injection and Its Two Active Components(Baicalin and Geniposide) Chinese Phar. The settings on record: Han's research; cited from earlier work.
Data set [10] relates to CYP3A4. The arrangement: method as in ref 45 = [45]; 45 Han Y. L. Meng X. L. Li D. In Vitro Inhibition of Six Cytochrome P450 Isoforms in Human Liver Microsomes by Qingkailing Injection and Its Two Active Components(Baicalin and Geniposide) Chinese Phar. The settings on record: Han's research; cited from earlier work.
In data set [11] the test system is CYP2C19. As to the kind of experiment: Cocktail method in rats: pharmacokinetics of probe drug omeprazole (CYP2C19 activity). It counts as in vivo. As to conditions: male, Wistar, omeprazole 10 mg/kg iv.
Procedure: as §1, §2, §3, §4, §5
Data set [12] relates to CYP2C9. The arrangement: method as in ref 44 = [44]; 44 Zhang Y. D. Liu X. Q. Guo Y. L. Effects of 20 active ingredients of traditional Chinese herbs on CYP2C9 activities in rat liver microsomes Journal of Third Military Medical University 2013 35 24 26. As to conditions: rat liver microsomes in vitro; cited from earlier work. (Liver microsomes are vesicles of endoplasmic reticulum, rich in cytochrome P450 enzymes.)

The mark [13] stands for this setting: Digeda group (Digeda-4 decoction 600 mg/kg ig 14 days).
The mark [14] stands for this setting: control group (saline ig 14 days).
Where [15] appears, read: positive group (phenobarbital 50 mg/kg ip 7 days).
Where [16] appears, read: positive group (phenobarbital 50 mg/kg ip 7 days), rat plasma.
Where [17] appears, read: rat, plasma, iv, 10 mg/kg, Digeda group (Digeda-4 decoction 600 mg/kg ig 14 days).
Where [18] appears, read: rat, plasma, iv, 10 mg/kg, control group (saline ig 14 days).
Where [19] appears, read: rat, plasma, iv, 10 mg/kg, positive group (phenobarbital 50 mg/kg ip 7 days).

As a reminder, the AUC(0-inf) is total exposure, with the tail of the curve extrapolated. Higher therefore signals high exposure. The term AUC(0-t) denotes the area under the concentration-time curve up to a stated or last time point. For orientation: Cmax means the peak of the concentration-time curve. What is called half-life is the time needed for the level to fall by half in the phase considered. A low value points to rapid decline. In data set [1] (setting [13]), `Cn1c(=O)c2[nH]cnc2n(C)c1=O` [Theophylline, theophylline] showed an AUC(0-inf) of 569000 ± 142000 ng·h/mL, an area under the curve AUC(0-t) of 299000 ± 67000 ng·h/mL, a Cmax of 30700 ± 5450 ng/mL and a clearance of 0.333 mL/min/kg. Further, the half-life in [1] (setting [13]) was 835 ± 160 min. In [1] (setting [14]), this molecule had an AUC(0-inf) of 326000 ± 76900 ng·h/mL, an AUC(0-t) of 206000 ± 37100 ng·h/mL, a Cmax of 31800 ± 5610 ng/mL and a clearance of 0.55 mL/min/kg. Also, the half-life in data set [1] (setting [14]) is 402 ± 97.5 min. In [1] (setting [15]), this molecule showed an AUC(0-inf) of 118000 ± 21400 ng·h/mL, an AUC(0-t) of 71900 ± 15400 ng·h/mL, a Cmax of 30000 ± 5180 ng/mL and a clearance of 1.02 mL/min/kg. In addition, the half-life in [1] (setting [15]) is 148 ± 21.5 min.
For the molecule `Cc1ncc2n1-c1ccc(Cl)cc1C(c1ccccc1F)=NC2` [Midazolam, midazolam], the AUC(0-t) in data set [2] (setting [13]) amounted to 1170 ± 209 ng·h/mL; in data set [2] (setting [14]) it was 881 ± 151 ng·h/mL; in data set [2] (setting [15]), 653 ± 95 ng·h/mL. The AUC(0-inf) was determined as 1360 ± 309 ng·h/mL in data set [2] (setting [13]), 928 ± 157 ng·h/mL in data set [2] (setting [14]) and 711 ± 125 ng·h/mL in data set [2] (setting [15]). In addition, the clearance in [2] (setting [13]) was 69.7 mL/min/kg; in [2] (setting [14]), 104 mL/min/kg; in [2] (setting [15]) it was 115 mL/min/kg. Also, the values for the Cmax in [2] (setting [13]), in data set [2] (setting [14]) and in data set [2] (setting [15]) were 2680 ± 509 ng/mL, 2900 ± 491 ng/mL and 2560 ± 507 ng/mL, respectively. Moreover, the half-life in data set [2] (T1/2, Digeda group (Digeda-4 decoction 600 mg/kg ig 14 days)) is 11.9 ± 1.92 min; in data set [2] (T1/2, control group (saline ig 14 days)), 8.64 ± 1.8 min; in data set [2] (T1/2, positive group (phenobarbital 50 mg/kg ip 7 days)), 6.3 ± 0.96 min.
In the case of `COc1cc(C(=O)O[C@H]2[C@@H]3C=CO[C@@H](O[C@@H]4O[C@H](CO)[C@@H](O)[C@H](O)[C@H]4O)[C@@H]3[C@@]3(CO)O[C@@H]23)ccc1O` [picroside II], the “effect on the activity of CYP2C19” value in [3] is “inhibitory effect”.
For `CC1(C)CC[C@]2(C(=O)O)CC[C@]3(C)C(=CC[C@@H]4[C@@]5(C)CC[C@H](O)C(C)(C)[C@@H]5CC[C@]43C)[C@@H]2C1` [Oleanolic acid], the “effect on CYP1A2 activity” value in [4] was “can inhibit CYP1A2 activity significantly”. The “effect on CYP2E1 activity” value in data set [5] was “little inhibition”. In addition, in data set [6], the “effect on CYP3A4” value is reported as “no effect”.
For `COC(=O)C1=CO[C@@H](O[C@@H]2O[C@H](CO)[C@@H](O)[C@H](O)[C@H]2O)[C@@H]2C(CO)=CC[C@H]12` [geniposide], the “inhibitory effect on CYP1A2” value in data set [7] is given as “no inhibitory effect”. The “inhibitory effect on CYP2C9” value in data set [8] is “no inhibitory effect”. Further, the “inhibitory effect on CYP2C19” value in data set [9] was “no inhibitory effect”. Also, the “inhibitory effect on CYP3A4” value in data set [10] is “no inhibitory effect”.
For the molecule `COc1ccc2[nH]c([S+]([O-])Cc3ncc(C)c(OC)c3C)nc2c1` (stereo not drawn) [Omeprazole, omeprazole], in data set [11] (setting [16]), the clearance is 10.2 mL/min/kg and the half-life was 7.08 ± 1.2 min. In data set [11] (setting [17]), the AUC(0-inf) worked out at 14200 ± 2610 ng·h/mL, the AUC(0-t) came out at 13300 ± 2630 ng·h/mL, the Cmax came to 38600 ± 6690 ng/mL and the clearance was 4.9 mL/min/kg. Besides, the half-life in [11] (setting [17]) is 16.9 ± 2.76 min. Besides, in data set [11] (setting [18]), the AUC(0-inf) amounted to 7280 ± 1310 ng·h/mL, the AUC(0-t) came to 6920 ± 1390 ng·h/mL, the Cmax was 20900 ± 3710 ng/mL and the clearance is 8 mL/min/kg. This molecule also had a half-life in data set [11] (setting [18]) of 9.78 ± 1.92 min. In [11] (setting [19]), this molecule gave an AUC(0-inf) of 5340 ± 993 ng·h/mL, an area under the curve AUC(0-t) of 4980 ± 845 ng·h/mL and a Cmax of 16900 ± 2630 ng/mL.
As for `C=C[C@H]1[C@H](O[C@@H]2O[C@H](CO)[C@@H](O)[C@H](O)[C@H]2O)OC=C2C(=O)OCC[C@]21O` [swertiamarin], the “effect on CYP2C9 activity” value in data set [12] is given as “inhibitory effect”.
